{
  "source": "paper PMC8920929",
  "about": "(The Journal of Biological Chemistry, 2022)",
  "key": {"[1]": {"biological_target": "T1, TRPV3-R509A (Homo sapiens, UniProt Q8NET8, R509A)", "T1 sequence (Q8NET8 1-790 R509A)": "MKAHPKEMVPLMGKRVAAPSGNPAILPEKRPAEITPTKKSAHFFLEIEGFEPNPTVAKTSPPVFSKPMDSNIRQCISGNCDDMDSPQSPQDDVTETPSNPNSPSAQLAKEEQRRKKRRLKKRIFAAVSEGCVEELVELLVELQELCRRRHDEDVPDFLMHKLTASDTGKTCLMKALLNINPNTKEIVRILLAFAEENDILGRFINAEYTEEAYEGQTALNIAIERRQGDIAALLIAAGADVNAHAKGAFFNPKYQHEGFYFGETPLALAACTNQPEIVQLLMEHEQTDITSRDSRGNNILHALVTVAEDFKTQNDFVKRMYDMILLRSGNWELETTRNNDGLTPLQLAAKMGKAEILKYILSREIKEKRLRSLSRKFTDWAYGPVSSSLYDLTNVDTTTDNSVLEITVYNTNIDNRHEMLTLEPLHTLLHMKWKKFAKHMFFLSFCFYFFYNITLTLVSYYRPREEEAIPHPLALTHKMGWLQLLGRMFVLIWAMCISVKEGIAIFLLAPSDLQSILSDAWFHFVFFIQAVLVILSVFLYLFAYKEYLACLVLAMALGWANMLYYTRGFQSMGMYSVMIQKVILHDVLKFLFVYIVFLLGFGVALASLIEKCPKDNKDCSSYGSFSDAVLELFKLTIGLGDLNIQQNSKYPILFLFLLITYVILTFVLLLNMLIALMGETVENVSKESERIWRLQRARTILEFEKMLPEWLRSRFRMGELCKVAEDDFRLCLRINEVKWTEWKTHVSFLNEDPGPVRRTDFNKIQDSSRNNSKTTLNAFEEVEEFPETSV", "assay": "Whole-cell and single-channel recordings of the TRPV3-R509A mutant", "assay_type": "cell-based"}, "[2]": {"biological_target": "T2, TRPV3-L508V (Homo sapiens, UniProt Q8NET8, L508V)", "T2 sequence (Q8NET8 1-790 L508V)": "T1 sequence (Q8NET8 1-790 R509A) with L508V, A509R", "assay": "Whole-cell and single-channel recordings of the TRPV3-L508V mutant", "assay_type": "cell-based", "conditions": "carvacrol 0.3-3 mM"}, "[3]": {"biological_target": "T3, TRPV3-D512A (Homo sapiens, UniProt Q8NET8, D512A)", "T3 sequence (Q8NET8 1-790 D512A)": "T1 sequence (Q8NET8 1-790 R509A) with A509R, D512A", "assay": "Whole-cell and single-channel recordings of the TRPV3-D512A mutant", "assay_type": "cell-based"}, "[4]": {"system": "TRPV3", "conditions": "read-out: EC50, activation of TRPV3; ref [23], [30]; cited from earlier work"}},
  "note": "Substitutions are numbered along the chain they refer to.",
  "data": [
    {"compound": "Cc1ccc(C(C)C)cc1O", "note": "[carvacrol, 5-Isopropyl-2-methylphenol]", "values": [
      {"measurement": "EC50", "setting": "[1]", "result": "2930 ± 110", "unit": "µM"},
      {"measurement": "right shift of channel activation versus WT TRPV3", "setting": "[1]; R509A versus WT", "result": "over 10 fold"},
      {"measurement": "sensitivity of TRPV3 R509A mutant channel", "setting": "[1]; macroscopic and single-channel current levels", "result": "decreased the channel sensitivity"},
      {"measurement": "activation of TRPV3 L508V mutant channel", "setting": "[2]", "result": "retain the channel activation"},
      {"measurement": "EC50", "setting": "[3]", "result": "3210 ± 480", "unit": "µM"},
      {"measurement": "right shift of channel activation versus WT TRPV3", "setting": "[3]; D512A versus WT", "result": "over 10 fold"},
      {"measurement": "sensitivity of TRPV3 D512A mutant channel", "setting": "[3]; carvacrol 0.3-3.0 mM", "result": "decreased the sensitivity"},
      {"measurement": "EC50", "setting": "[4]", "result": "497 ± 70", "unit": "µM"}
    ]}
  ]
}
